Measurements taken from patent publication US9283297B2, “Sanitary article comprising a microbe-inhibiting composition” (SCA HYGIENE PRODUCTS AB, priority 2006, dated 2016).
Several values for one entry are separate records, joined by “and”; a condition that tells them apart may be missing. Equal entries are not always repeated.

Columns and labels:
[1] = system: C. albicans; experiment: Example 1 Screening II: Lactobacillus cell-free filtrate, turbidity; format: cell-based, Candida albicans; settings: three times concentrated
From the text: (§1) Clinical isolates of Candida albicans and Candida glabrata were used as test strains. These were isolated from the vagina of women with vaginal candidiasis and from healthy females. Suspensions of lactobacilli grown in dMRSs broth (MRS broth without addition of sodium acetate) were centrifuged and sterile filtered. The filtrate is henceforth called Lactobacillus Cell-free Filtrate, LCF. A specified volume was transferred to wells of a micro titre plate and was let to air dry and thereafter resuspended in sterile distilled water to a concentration three times higher and transferred to 96-wells micro titre plates. Candida was added to all vials (three isolates of C. albicans and C. glabrata, respectively, were used). The inhibition was evaluated by visual observation of turbidity and graduated by two persons using a template on a scale from five to zero. The wells containing strong growth of Candida sp. in pure dMRSs-broth was graduated as five, while wells with no visual growth were graduated as zero.

[2] = system: C. glabrata; experiment: as above; format: cell-based, Candida glabrata; settings: three times concentrated
From the text: as §1

[3] = system: Candida albicans 702; experiment: Test 4: agar plug test, zones with no growth of Candida; format: cell-based; settings: for Zones around the plugs with no growth of Candida, Plug with LB931: ~10^7 LB 931 per plug
From the text: The purpose of this test was to evaluate the enhanced Candida inhibition from Na-acetate in combination with growing cells of Lactobacillus plantarum LB 931. Two plates were made with M17 agar and two with MRS agar. MRS medium (developed by De Man, Rogosa and Sharpe), is a growth medium commonly used for Lactobacillus. MRS agar from Merck contains 5 g sodium acetate per litre agar. M17 (Oxoid) is a similar commercial substrate for Lactobacillus but without the addition of sodium acetate. The agars were prepared as described on the packages. Lactobacillus plantarum LB931 was cultivated in MRS broth in 37° C. with 5% CO2 for 24 hours. Candida albicans 702 was cultivated in M17 broth at 37° C. for 24 hours. Holes (Ø10 mm) were punched in the plates and filled with 250 μl plugs of agar mixtures containing ˜10^7 LB 931 in MRS agar). The plates were left for 30 minutes and then incubated 24 hours at 37° C. with 5% CO2. Overnight culture of C. albicans in M17 broth was diluted 10 times and 100 μl was spread on the surface of each plate. The plates were then incubated for 24 hours at 37° C. As controls, holes (Ø10 mm) were filled with only MRS agar. The plates were evaluated in respect to Candida growth inhibition. Zones around the plugs with no growth of Candida were measured (Ø mm).

| Substance | inhibition of growth of C. albicans [1] | inhibition of growth of C. glabrata [2] | Zones around the plugs with no growth of Candida, Plug with LB931 ([3]; M17 agar in the Petri dish (without sodium acetate)) | Candida growth inhibition, in words ([3]; M17 agar plates (without sodium acetate)) | Zones around the plugs with no growth of Candida, Plug with LB931 ([3]; MRS agar in the Petri dish (contains 5 g sodium acetate per litre)) | Candida growth inhibition zones, in words ([3]; MRS agar plates (sodium acetate)) |
| --- | --- | --- | --- | --- | --- | --- |
| Lactobacillus fermentum Ess-1 | comprehensive capacity to inhibit growth of Candida | comprehensive capacity to inhibit growth of Candida | – | – | – | – |
| Lactobacillus plantarum LB 931 [LB931] | – | – | 0 Ø mm | substantially no inhibition of Candida | 18.8 Ø mm and 18.1 Ø mm | clear zones |
